How the values were obtained:
MET = MET (Homo sapiens, UniProt P08581); test: RTK kinase profile screen assay; type: biochemical; conditions: 10 μM
IR = IR (Mus musculus, UniProt P15208); test: IR phosphorylation and downstream signaling in mouse tissues; type: in vivo; conditions: for IR and ERK phosphorylations in liver and muscle: 5 mg/kg oral, 1 and 2 h
Method: (A) DDN reduces blood glucose in C57BL/6J mice. […] Blood glucose was monitored before and after dosing at various time points as indicated (*: P<0.05, **: P<0.01; ***: P<0.001, n=10-13, Two-way ANOVA vs vehicle). (B) DDN provokes IR phosphorylation and its downstream signaling in C57BL/6J mice. Three month-old C57BL/6J mice were starved for 12 h and then orally administrated with vehicle (0.5% methylcellulose), DDN (20 mg/kg) or 2NH2-NQ (20 mg/kg). Cell lysates were prepared from liver and muscle tissues collected at 3, 4, and 5 h after drug administration and analyzed by immunoprecipitation and immunoblotting. (C) DDN quickly activates IR phosphorylation and its downstream signaling. Three-month-old C57BL/6J mice were starved for 12 h and then injected with vehicle, 5 mg/kg DDN or 5 mg/kg 2NH2-NQ through vena cava. After 5 min, the liver was collected and analyzed by immunobloting using specific antibodies.
Three-month-old mice were starved for 12 h and then orally administrated with vehicle (0.5% methylcellulose) or DDN (5 mg/kg). Cell lysates were prepared from liver and muscle tissues collected at 1 and 2 h after drug administration and analyzed by immunoprecipitation and immunoblotting. […] Three-month-old mice were starved for 12 h and then orally administrated with vehicle (0.5% methylcellulose) or DDN (5 mg/kg). Cell lysates were prepared from liver and muscle tissues collected at 1 and 2 h after drug administration and analyzed by immunoprecipitation and immunoblotting. (C) Hypoglycemic function of DDN in db/db mice. The animals were starved for 12 h and then orally injected with vehicle (0.5% methylcellulose) or DDN (5 mg/kg). […] Blood glucose was monitored before and after drug administration at 1-hour intervals (*: P<0.05, **: P<0.01, n=5, Two-way ANOVA vs vehicle). (D) DDN improves the glucose tolerance in ob/ob mice. The animals were starved for 12 h and then orally dosed with vehicle (0.5% methylcellulose) or DDN (5 mg/kg). […] A bonus of glucose (2 gm/kg) was injected intraperitoneally 1 hour later. Blood glucose was measured at 30-min intervals (*: P<0.05, **:P<0.01, n=5, Two-way ANOVA vs vehicle control).
(A) 4524-E7 provokes IR phosphorylation in various tissues of mice. Three-month-old C57BL/6J mice were starved for 12 h and then dosed with vehicle (0.5% methylcellulose) or 4524-E7 (20 mg/kg). Cell lysates from liver, muscle, and WAT were prepared at 3, 4, and 5 h after drug administration and analyzed by immunoblotting. (B) Basal and insulin-stimulated hepatic glucose production rates were measured by hyperinsulinemic-euglycemic clamp. […] (C) Hypoglycemic effect of 4524-E7 in C57BL/6J mice. C57BL/6J mice were starved for 12 h and then orally administrated with vehicle (0.5% methylcellulose) or 4524-E7 (5 mg/kg). Blood glucose was monitored at different time points as indicated (n=8, *: P<0.05, two-way ANOVA). (D) Hypoglycemic effect in db/db mice. db/db mice were starved for 12 h and then orally injected with vehicle (0.5% methylcellulose) or 4524-E7 (5 mg/kg). Blood glucose was monitored at different time points as indicated (n=5, *: P<0.05, two-way ANOVA). (E) Glucose tolerance test in ob/ob mice. The mice were starved for 12 hours and then orally administrated with vehicle or 4524-E7 (5 mg/kg). A bonus of glucose (2 gm/kg) was injected intraperitoneally 1 hour later. Blood glucose was then measured at 30 min intervals (n=13, *: P<0.05; **: P<0.01, two-way ANOVA).
After a 12 h fasting, C57BL/6J mice were orally administrated with 20 mg/kg of compound in 0.5% methylcellulose, and sacrificed at 3 h, 4 h and 5 h following compound administration. Fat tissues were dissected quickly and frozen on dry ice. Fat lysates were prepared and analyzed by Western blotting.

GST-IRTK = target: T1, GST-IRTK (Homo sapiens, UniProt P06213); test: Partial proteolysis; type: binding; conditions: compound 50 μM or ATP-γ-S 5 μM; limited trypsin (or chymotrypsin) digestion
T1 construct: GST-tagged IRTK (GST-IRTK, a.a. 1011-1382); purchased Invitrogen
Method: 200 ng GST-IRTK was subjected to limited trypsin digestion in the presence or absence of 50 μM compound with 50 mM tris-HCL (pH8.2) and 20 mM CacCl2. The sample was separated on a SDS-polyacrylamide gel and stained by silver.
Several small molecules bind to the intracellular kinase domain of IR (IRTK) and provoke its activation. DDN might also interact with the IRTK to activate IR. To test this possibility, an UV-absorption spectra analysis was performed using recombinant IRTK. While the GST-tagged IRTK (GST-IRTK, a.a. 1011-1382) had no absorption from 200 nm to 800 nm, addition of DDN, but not its structural related analogue naptho[2,3-d]thiazole-4,9-dione-2-[(4-chlorophenyl)amino] […] Partial proteolysis analysis was also performed to confirm the DDN/IRTK interaction. Recombinant GST-tagged IRTK was incubated with either DMSO or DDN, followed by limited trypsin digestions. In DMSO treatment, GST-IRTK was digested into several smaller fragments of various molecular weights. […] Whereas a band of ˜37 kDa presented strongly in the ATP-γ-S incubated IRTK, a band of ˜30 kDa was found in the control samples but attenuated in the ATP-γ-S-treated sample.
To evaluate if 4524-E7 directly binds to the IR kinase domain, a partial proteolysis assay was performed with recombinant IRTK domain using trypsin or chymotrypsin, which was used before to characterize the interaction between IR and its small molecular ligand DAQ B1. Recombinant GST-tagged IRTK with either DMSO, 50 μM 4524-E7 or ATP-γ-S, were incubated and followed by limited trypsin or chymotrypsin digestion. Under DMSO treatment, GST-IRTK was quickly digested by both trypsin and chymotrypsin into several small fragments with various molecular weights (FIG. 10B). […] To test whether 4524-E7 selectively elevates IR kinase activities, an in vitro IR, IGFR, and EGFR kinase assays were performed using histone as the substrate.

IGF-IR = target: T2, IGF-IR (Mus musculus, UniProt Q60751); test: IGF-IR activation in mouse muscle and liver; type: in vivo; conditions: C57BL/6J mice, 20 mg/kg oral
T2 construct: from tissue; host or cells: muscle and liver of C57BL/6J mice
T2 sequence (Q60751 31-1373): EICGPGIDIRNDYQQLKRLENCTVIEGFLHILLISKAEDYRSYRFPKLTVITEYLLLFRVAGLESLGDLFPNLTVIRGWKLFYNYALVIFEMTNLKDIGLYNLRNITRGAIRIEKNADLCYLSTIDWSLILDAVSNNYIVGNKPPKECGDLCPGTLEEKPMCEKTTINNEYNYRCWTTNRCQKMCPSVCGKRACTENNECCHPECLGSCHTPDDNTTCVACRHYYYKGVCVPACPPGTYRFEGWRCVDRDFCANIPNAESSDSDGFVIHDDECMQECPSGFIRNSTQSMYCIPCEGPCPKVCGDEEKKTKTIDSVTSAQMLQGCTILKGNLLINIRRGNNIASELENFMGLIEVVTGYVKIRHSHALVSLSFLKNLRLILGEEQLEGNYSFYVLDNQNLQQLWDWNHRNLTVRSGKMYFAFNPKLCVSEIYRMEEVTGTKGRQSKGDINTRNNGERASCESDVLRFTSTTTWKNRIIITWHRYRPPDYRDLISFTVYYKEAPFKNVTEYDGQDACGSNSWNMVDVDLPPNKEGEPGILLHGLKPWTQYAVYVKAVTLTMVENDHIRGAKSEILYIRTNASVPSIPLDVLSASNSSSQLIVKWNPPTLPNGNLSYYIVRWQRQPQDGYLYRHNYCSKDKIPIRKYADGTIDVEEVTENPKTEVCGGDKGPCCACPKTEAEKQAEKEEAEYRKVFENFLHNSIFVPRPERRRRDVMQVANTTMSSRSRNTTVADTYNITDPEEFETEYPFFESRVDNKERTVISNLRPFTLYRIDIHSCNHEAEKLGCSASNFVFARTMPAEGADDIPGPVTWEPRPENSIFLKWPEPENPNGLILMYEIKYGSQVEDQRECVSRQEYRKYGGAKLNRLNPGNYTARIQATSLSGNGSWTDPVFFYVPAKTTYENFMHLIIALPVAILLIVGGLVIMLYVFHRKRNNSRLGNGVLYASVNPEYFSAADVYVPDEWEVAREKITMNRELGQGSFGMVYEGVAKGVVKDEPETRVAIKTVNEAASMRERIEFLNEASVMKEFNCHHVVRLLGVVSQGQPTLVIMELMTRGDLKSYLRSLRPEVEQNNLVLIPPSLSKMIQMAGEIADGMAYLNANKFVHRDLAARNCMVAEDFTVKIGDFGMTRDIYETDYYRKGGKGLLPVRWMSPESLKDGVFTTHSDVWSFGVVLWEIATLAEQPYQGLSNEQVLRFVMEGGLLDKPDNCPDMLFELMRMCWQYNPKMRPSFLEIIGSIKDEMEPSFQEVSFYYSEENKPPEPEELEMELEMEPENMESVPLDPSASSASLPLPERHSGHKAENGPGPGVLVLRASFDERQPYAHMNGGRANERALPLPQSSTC

Sequence of IR (P15208 28-1372): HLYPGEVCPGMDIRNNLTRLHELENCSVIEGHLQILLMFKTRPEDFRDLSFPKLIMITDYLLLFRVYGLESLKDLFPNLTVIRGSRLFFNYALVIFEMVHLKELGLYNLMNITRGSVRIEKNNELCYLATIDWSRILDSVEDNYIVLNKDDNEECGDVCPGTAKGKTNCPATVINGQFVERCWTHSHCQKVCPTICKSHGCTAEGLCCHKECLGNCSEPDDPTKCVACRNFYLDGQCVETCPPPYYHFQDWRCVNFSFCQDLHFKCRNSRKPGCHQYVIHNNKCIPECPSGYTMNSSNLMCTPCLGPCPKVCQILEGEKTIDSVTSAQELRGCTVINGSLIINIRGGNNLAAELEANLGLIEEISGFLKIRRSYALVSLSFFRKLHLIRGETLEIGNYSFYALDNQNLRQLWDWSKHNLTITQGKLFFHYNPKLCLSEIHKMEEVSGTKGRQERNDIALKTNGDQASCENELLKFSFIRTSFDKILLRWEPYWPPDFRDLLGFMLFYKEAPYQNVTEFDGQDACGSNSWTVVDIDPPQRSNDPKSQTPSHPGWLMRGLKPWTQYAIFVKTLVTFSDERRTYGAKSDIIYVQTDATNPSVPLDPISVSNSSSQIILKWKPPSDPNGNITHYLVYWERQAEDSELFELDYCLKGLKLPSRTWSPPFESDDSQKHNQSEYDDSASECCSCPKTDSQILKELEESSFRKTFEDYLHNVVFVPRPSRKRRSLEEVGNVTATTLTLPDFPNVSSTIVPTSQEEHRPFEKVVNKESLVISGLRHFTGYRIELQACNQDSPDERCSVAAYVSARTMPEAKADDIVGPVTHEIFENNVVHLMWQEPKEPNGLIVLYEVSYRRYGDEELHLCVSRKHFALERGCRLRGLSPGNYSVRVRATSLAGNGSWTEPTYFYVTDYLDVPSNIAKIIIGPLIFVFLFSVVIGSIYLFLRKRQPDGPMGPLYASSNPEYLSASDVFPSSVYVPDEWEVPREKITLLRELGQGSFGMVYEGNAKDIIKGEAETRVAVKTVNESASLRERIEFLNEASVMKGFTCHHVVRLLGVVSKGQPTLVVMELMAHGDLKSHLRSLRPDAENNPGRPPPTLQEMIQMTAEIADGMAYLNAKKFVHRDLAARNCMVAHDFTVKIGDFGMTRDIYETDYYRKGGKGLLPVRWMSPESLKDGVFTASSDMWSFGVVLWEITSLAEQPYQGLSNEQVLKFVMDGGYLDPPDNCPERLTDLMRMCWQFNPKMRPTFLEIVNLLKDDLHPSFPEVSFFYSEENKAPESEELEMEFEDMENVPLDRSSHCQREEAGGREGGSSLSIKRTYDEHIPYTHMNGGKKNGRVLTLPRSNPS
T1 sequence (P06213 1011-1382): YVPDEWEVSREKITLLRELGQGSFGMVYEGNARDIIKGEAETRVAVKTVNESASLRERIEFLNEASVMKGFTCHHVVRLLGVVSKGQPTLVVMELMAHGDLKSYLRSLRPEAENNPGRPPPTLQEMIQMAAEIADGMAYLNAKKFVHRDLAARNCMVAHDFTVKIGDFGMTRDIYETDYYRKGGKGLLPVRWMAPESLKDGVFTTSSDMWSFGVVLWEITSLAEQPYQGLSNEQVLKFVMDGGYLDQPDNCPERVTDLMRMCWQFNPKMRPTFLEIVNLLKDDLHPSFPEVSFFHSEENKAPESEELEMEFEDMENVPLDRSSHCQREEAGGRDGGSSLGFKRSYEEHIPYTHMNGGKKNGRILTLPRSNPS
Sequence of MET (P08581 25-1390): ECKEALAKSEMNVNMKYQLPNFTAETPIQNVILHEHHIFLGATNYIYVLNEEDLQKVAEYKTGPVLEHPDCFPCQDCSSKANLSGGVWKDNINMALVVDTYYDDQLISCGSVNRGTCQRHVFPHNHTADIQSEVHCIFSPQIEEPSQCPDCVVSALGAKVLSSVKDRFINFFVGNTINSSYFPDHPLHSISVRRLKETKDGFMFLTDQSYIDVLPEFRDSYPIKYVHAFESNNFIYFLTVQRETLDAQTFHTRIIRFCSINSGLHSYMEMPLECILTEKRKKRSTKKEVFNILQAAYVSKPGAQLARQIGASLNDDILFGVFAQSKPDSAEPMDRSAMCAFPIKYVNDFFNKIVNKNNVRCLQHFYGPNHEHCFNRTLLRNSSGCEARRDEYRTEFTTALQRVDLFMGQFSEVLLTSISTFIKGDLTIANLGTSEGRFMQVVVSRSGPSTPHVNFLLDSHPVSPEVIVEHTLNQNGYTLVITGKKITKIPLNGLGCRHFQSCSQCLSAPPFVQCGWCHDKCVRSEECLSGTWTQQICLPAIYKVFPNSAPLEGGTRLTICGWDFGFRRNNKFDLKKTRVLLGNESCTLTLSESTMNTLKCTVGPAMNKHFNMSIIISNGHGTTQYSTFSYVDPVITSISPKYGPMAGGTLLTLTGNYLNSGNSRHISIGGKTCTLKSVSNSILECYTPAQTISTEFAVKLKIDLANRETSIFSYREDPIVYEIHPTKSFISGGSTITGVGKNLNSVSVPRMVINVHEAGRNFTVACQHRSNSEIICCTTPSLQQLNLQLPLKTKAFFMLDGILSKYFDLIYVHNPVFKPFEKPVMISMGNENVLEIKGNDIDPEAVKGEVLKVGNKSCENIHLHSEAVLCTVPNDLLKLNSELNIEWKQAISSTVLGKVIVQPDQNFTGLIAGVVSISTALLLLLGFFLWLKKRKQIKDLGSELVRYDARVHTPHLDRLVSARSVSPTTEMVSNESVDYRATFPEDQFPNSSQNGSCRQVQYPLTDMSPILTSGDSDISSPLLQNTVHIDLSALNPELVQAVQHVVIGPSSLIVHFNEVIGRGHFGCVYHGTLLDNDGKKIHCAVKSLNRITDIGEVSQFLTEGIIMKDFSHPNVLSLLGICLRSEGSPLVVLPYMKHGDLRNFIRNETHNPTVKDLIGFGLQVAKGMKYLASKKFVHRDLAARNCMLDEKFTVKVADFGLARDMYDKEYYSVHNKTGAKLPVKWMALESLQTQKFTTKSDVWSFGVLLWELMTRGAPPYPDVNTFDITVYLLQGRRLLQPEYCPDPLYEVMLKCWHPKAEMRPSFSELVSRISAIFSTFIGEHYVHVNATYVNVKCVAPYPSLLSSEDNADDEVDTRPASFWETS

inhibition of MET (MET) | IR tyrosine phosphorylation in the liver, muscle and WAT (IR; C57BL/6J mice, 20 mg/kg oral, 3 h after administration) | protection of IRTK from proteolysis (GST-IRTK) | IGF-IR activation in muscle or liver (IGF-IR) | IR, Akt and ERK activation in liver (IR; C57BL/6J mice, 5 mg/kg through vena cava, after 5 min) | time until demonstrable IR activation in liver and muscle (IR; C57BL/6J mice, 20 mg/kg oral gavage) [h] | IR and ERK phosphorylations in liver and muscle (IR; db/db mice) | time until IR activation in liver and muscle (IR; injected into blood stream through vena cava) [min] | IR and ERK phosphorylations in liver and muscle (IR; ob/ob mice) | Structure (SMILES) | IR and IRS-1 tyrosine phosphorylation in liver and muscle (IR; C57BL/6J mice, 20 mg/kg oral)
slightly inhibited | all elevated | more intact IRTK was observed |  |  |  |  |  |  | O=C1c2ccccc2C(=O)C2SC(Nc3ccc(Cl)cc3)=NC12 (centres unmarked) [4524-E7, 2-((4-chlorophenyl)amino)naphtho[2,3-d]thiazole-4,9(3aH,9aH)-dione] | 
 |  | protected IRTK against trypsin digestion | did not stimulate IGF-IR activation | quickly activated IR | 3 to 4 | enhanced IR and ERK phosphorylations | 5 | enhanced IR and ERK phosphorylations | CC(=O)Oc1ccc(OC(C)=O)c2c1C(=O)C(Cl)=C(Cl)C2=O [DDN, 5,8-diacetyloxy-2,3-dichloro-1,4-naphthoquinone] | confirmed IRS-1 tyrosine phosphorylation in both tissues
